Test results as given in patent US10954214B2 (Janssen Pharmaceutica NV, priority 2016, dated 2021).

Key:
[1] = tested on: IL6 secretion by TMD8 ABC-DLBCL cells; experiment: Human IL6 Mesoscale assay (TMD-8); assay type: cell-based; conditions: Homo sapiens, TMD8; TMD-8 cells, 24 h
Procedure, shortened: (§1)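 Compounds tested from 15 μM to 58.6 nM (twofold, 9 concentrations) on 100,000 cells per well over 24 h at 37° C, without beta-mercaptoethanol. Secreted cytokine in supernatant detected by MSD electrochemiluminescence; scaling used DMSO as maximum and RN486 as full inhibition.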

OCI-Ly3 cells = experiment: 4-day proliferation assay, OCI-Ly3; assay type: cell-based, human; conditions: Homo sapiens, 96 h, 4 days incubation, CellTiterGLO, read-out: Anti-proliferation: OCI-LY-3 IC50
Procedure: (§2) To assess anti-proliferative effects, MALT1 inhibitor test compounds were tested in 4-day proliferation assays using three different DLBCL cell lines.
(§3) Cells should be kept between 0.5-2.5 million cells per mL during culturing and cells should be supplemented every 2-3 days with fresh 50 μM beta-mercaptoenthanol. No beta-mercaptoethanol is used during the proliferation assay. OCI-Ly7 cells were propagated in IMDM (ThermoFisher) supplemented with 10% fetal bovine serum (HyClone), 2 mM L-glutamine (Sigma Aldrich) and 50 μg/mL Gentamycin. Cell passage numbers should not exceed 30 (for OCI-Ly3 cells with passage number lower than 10 were used).
(§4) 10,000 TMD8, 10,000 OCI-Ly3 or 2,000 OCI-Ly7 cells were seeded in 100 μL media per well and incubated for 4 days at 37° C. and 5% CO2. Cell plating numbers were chosen based on growth curves to ensure linear cell growth. After 4 days of incubation 50 μL CellTiterGLO reagent (Promega) were added to each well and luminescence was measured on the Envision after 10 min of incubation at room temperature.
(§5) LC=median of the low control values
(§6) An estimate of the slope of the plot in terms of the Hill coefficient was also obtained.

[2] = target: full-length MALT1 protein (Strep-MALT1(1-824)-His) (Homo sapiens (Human), UniProt Q9UDY8); experiment: MALT1 Biochemical Protease Assay (Ac-LRSR-AMC substrate); conditions: 10 nM FL MALT1, 200 μM Ac-LRSR-AMC, 4 h at RT; read-out: MALT1_Biochemical activity (Ac-LRSR-amc) IC50
Sequence of full-length MALT1 protein (Strep-MALT1(1-824)-His) (Q9UDY8 whole entry): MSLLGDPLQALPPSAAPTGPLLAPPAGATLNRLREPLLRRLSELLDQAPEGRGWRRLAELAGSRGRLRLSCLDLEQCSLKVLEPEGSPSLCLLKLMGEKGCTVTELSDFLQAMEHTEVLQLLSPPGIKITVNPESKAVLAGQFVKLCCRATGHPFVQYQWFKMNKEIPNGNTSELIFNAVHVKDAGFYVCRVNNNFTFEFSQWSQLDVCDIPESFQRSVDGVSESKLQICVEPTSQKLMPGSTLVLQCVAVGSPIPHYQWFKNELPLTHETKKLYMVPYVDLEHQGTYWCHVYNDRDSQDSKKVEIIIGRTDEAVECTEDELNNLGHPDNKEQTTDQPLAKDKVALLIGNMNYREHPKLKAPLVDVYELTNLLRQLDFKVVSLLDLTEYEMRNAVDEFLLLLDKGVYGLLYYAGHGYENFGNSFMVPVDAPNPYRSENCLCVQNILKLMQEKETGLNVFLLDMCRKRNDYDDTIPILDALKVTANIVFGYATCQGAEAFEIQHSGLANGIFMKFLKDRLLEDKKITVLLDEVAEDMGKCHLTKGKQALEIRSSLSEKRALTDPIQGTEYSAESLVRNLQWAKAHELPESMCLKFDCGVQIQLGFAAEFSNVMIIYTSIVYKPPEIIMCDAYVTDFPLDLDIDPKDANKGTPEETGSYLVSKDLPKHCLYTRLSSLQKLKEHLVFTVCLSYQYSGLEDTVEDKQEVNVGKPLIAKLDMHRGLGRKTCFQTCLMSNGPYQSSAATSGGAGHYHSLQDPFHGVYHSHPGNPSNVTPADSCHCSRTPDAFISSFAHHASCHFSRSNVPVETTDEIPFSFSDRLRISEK
Procedure, shortened: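 Fluorescence from AMC release off the quenched LRSR substrate was read after a 4 h reaction at RT. Values were normalised to no-enzyme and uninhibited controls and fitted for IC50 and Hill coefficient.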

[3] = tested on: IL10 secretion by TMD8 ABC-DLBCL cells; experiment: Human IL10 Mesoscale assay (TMD-8); assay type: cell-based; conditions: Homo sapiens, TMD8; TMD-8 cells, 24 h
Procedure, shortened: as §1

TMD8 cells = experiment: 4-day proliferation assay, TMD8; assay type: cell-based; conditions: Homo sapiens, 96 h, 4 days incubation, CellTiterGLO, read-out: Anti-proliferation: TMD-8 IC50
Procedure: as §2, §3, §4, §5, §6

[4] = tested on: IL10 secretion by OCI-LY3 ABC-DLBCL cells; experiment: Human IL10 Mesoscale assay (OCI-LY3); assay type: cell-based; conditions: Homo sapiens, 24 h
Procedure, shortened: as §1

[5] = tested on: IL6 secretion by OCI-LY3 ABC-DLBCL cells; experiment: Human IL6 Mesoscale assay (OCI-LY3); assay type: cell-based; conditions: Homo sapiens, 24 h
Procedure, shortened: as §1

Row | IC50 [1] [nM] | IC50 (OCI-Ly3 cells) [nM] | IC50 [2] [nM] | IC50 [3] [nM] | IC50 [4] [nM] | IC50 [5] [nM] | Structure (SMILES) | IC50 (TMD8 cells) [nM]
1 | 58 | 430 | 60 | 63 |  |  | O=C(Nc1cnc(-c2nnco2)c(Cl)c1)c1cnn(-c2cncc3ccccc23)c1C(F)(F)F [Cpd 69, N-(5-Chloro-6-(1,3,4-oxadiazol-2-yl)pyridin-3-yl)-1-(isoquinolin-4-yl)-5-(trifluoromethyl)-1H-pyrazole-4-carboxamide] | ~16200
2 | 1100 | ~1350 | 479 | 891 |  |  | O=C(Nc1cnc(-n2ccnc2)c(Cl)c1)c1cnn(-c2cncc3ccccc23)c1C(F)(F)F [Cpd 70, N-(5-chloro-6-(1H-imidazol-1-yl)pyridin-3-yl)-1-(isoquinolin-4-yl)-5-(trifluoromethyl)-1H-pyrazole-4-carboxamide] | ~13800
3 | 525 | 1720 | 35 | 1150 |  |  | N#Cc1cc(NC(=O)c2cnn(-c3ccc(F)c4nccn34)c2C(F)(F)F)cnc1-n1nccn1 [Cpd 204, N-(5-cyano-6-(2H-1,2,3-triazol-2-yl)pyridin-3-yl)-1-(8-fluoroimidazo[1,2-a]pyridin-5-yl)-5-(trifluoromethyl)-1H-pyrazole-4-carboxamide] | 5890
4 | 251 | 1700 | 141 | 324 |  |  | O=C1COc2c(Cl)cc(NC(=O)c3cnn(-c4cncc5ccccc45)c3C(F)(F)F)cc2N1 [Cpd 87, N-(8-Chloro-3-oxo-3,4-dihydro-2H-benzo[b][1,4]oxazin-6-yl)-1-(isoquinolin-4-yl)-5-(trifluoromethyl)-1H-pyrazole-4-carboxamide] | ~13800
5 | 389 | 395 | 13 | 182 |  |  | Cc1nc(-n2nccn2)c(Cl)cc1NC(=O)c1cnn(-c2cncc3c(F)cccc23)c1C(F)(F)F [Cpd 123, N-(5-chloro-2-methyl-6-(2H-1,2,3-triazol-2-yl)pyridin-3-yl)-1-(8-fluoroisoquinolin-4-yl)-5-(trifluoromethyl)-1H-pyrazole-4-carboxamide] | 501
6 |  | 1270 | 52 |  | 490 | 646 | Cc1csc2c(-n3ncc(C(=O)Nc4cnc(-n5nccn5)c(C#N)c4)c3C(F)(F)F)ccnc12 [Cpd 310, N-(5-cyano-6-(2H-1,2,3-triazol-2-yl)pyridin-3-yl)-1-(3-methylthieno[3,2-b]pyridin-7-yl)-5-(trifluoromethyl)-1H-pyrazole-4-carboxamide] | 
7 | ~340 | ~2340 | 98 | 251 |  |  | O=C(Nc1cnc(OC2CC2)c(Cl)c1)c1cnn(-c2cccc3ncccc23)c1C(F)(F)F [Cpd 79, N-(5-Chloro-6-cyclopropoxypyridin-3-yl)-1-(quinolin-5-yl)-5-(trifluoromethyl)-1H-pyrazole-4-carboxamide] | 8320
8 | 126 | 273 | 19 | 54 |  |  | N#Cc1cc(NC(=O)c2cnn(-c3cccc4ncccc34)c2C(F)(F)F)ccc1-n1nccn1 [Cpd 133, N-(3-cyano-4-(2H-1,2,3-triazol-2-yl)phenyl)-1-(quinolin-5-yl)-5-(trifluoromethyl)-1H-pyrazole-4-carboxamide] | 3310
9 | 575 | 3470 | 209 | 257 |  |  | CN1C(=O)COc2c(Cl)cc(NC(=O)c3cnn(-c4cncc5ccccc45)c3C(F)(F)F)cc21 [Cpd 97, N-(8-chloro-4-methyl-3-oxo-3,4-dihydro-2H-benzo[b][1,4]oxazin-6-yl)-1-(isoquinolin-4-yl)-5-(trifluoromethyl)-1H-pyrazole-4-carboxamide] | ~5890
10 | 68 | 650 | 11 | 47 |  |  | N#Cc1cc(NC(=O)c2cnn(-c3nccc4ccoc34)c2C(F)(F)F)cnc1-n1nccn1 [Cpd 99, N-(5-cyano-6-(2H-1,2,3-triazol-2-yl)pyridin-3-yl)-1-(furo[2,3-c]pyridin-7-yl)-5-(trifluoromethyl)-1H-pyrazole-4-carboxamide] | ~3240
11 | 112 | 230 | 59 | 85 |  |  | N#Cc1cc(NC(=O)c2cnn(-c3cncc4ccccc34)c2C(F)(F)F)ccc1-n1ccnn1 [Cpd 62, N-(3-cyano-4-(1H-1,2,3-triazol-1-yl)phenyl)-1-(isoquinolin-4-yl)-5-(trifluoromethyl)-1H-pyrazole-4-carboxamide] | 10000
12 | 240 | ~1580 | 676 | 295 |  |  | N#Cc1cncc(NC(=O)c2cnn(-c3cncc4ccccc34)c2C(F)(F)F)c1 [Cpd 82, N-(5-cyanopyridin-3-yl)-1-(isoquinolin-4-yl)-5-(trifluoromethyl)-1H-pyrazole-4-carboxamide] | 6310
13 | 200 | 966 | 30 | 85 |  |  | O=C(Nc1cnc(-n2nccn2)c(Cl)c1)c1cnn(-c2nccn3cccc23)c1C(F)(F)F [Cpd 147, N-(5-chloro-6-(2H-1,2,3-triazol-2-yl)pyridin-3-yl)-1-(pyrrolo[1,2-a]pyrazin-1-yl)-5-(trifluoromethyl)-1H-pyrazole-4-carboxamide] | 11500
14 | 245 | 447 | 23 | 126 |  |  | N#Cc1cc(NC(=O)c2cnn(-c3ccnc4ccccc34)c2C(F)(F)F)cnc1-n1nccn1 [Cpd 138, N-(5-cyano-6-(2H-1,2,3-triazol-2-yl)pyridin-3-yl)-1-(quinolin-4-yl)-5-(trifluoromethyl)-1H-pyrazole-4-carboxamide] | 2510
15 | 98 | 423 | 26 | 56 |  |  | N#Cc1cc(NC(=O)c2cnn(-c3nccc4ccsc34)c2C(F)(F)F)cnc1-n1nccn1 [Cpd 143, N-(5-cyano-6-(2H-1,2,3-triazol-2-yl)pyridin-3-yl)-1-(thieno[2,3-c]pyridin-7-yl)-5-(trifluoromethyl)-1H-pyrazole-4-carboxamide] | 9550
16 | 72 | 1170 | 24 | 28 |  |  | N#Cc1cc(NC(=O)c2cnn(-c3ncnn4cccc34)c2C(F)(F)F)cnc1-n1nccn1 [Cpd 140, N-(5-cyano-6-(2H-1,2,3-triazol-2-yl)pyridin-3-yl)-1-(pyrrolo[2,1-f][1,2,4]triazin-4-yl)-5-(trifluoromethyl)-1H-pyrazole-4-carboxamide] | 5370
17 | 1480 | 580 | 724 |  |  |  | CC(C)Cc1c(C(=O)Nc2cnc(-n3nccn3)c(Cl)c2)cnn1-c1cccc2ncccc12 [Cpd 16, N-(5-Chloro-6-(2H-1,2,3-triazol-2-yl)pyridin-3-yl)-5-isobutyl-1-(quinolin-5-yl)-1H-pyrazole-4-carboxamide] | 10700
18 | 95 | 188 | 16 | 105 | 36 | 27 | N#Cc1cc(NC(=O)c2cnn(-c3ccnc4ccsc34)c2C(F)(F)F)cnc1-n1nccn1 [Cpd 128, N-(5-cyano-6-(2H-1,2,3-triazol-2-yl)pyridin-3-yl)-1-(thieno[3,2-b]pyridin-7-yl)-5-(trifluoromethyl)-1H-pyrazole-4-carboxamide] | 
19 | 105 | 1950 | 35 |  |  |  | Cc1ccc2ncccc2c1-n1ncc(C(=O)Nc2cnc(-n3nccn3)c(Cl)c2)c1C(F)(F)F [Cpd 27, N-(5-Chloro-6-(2H-1,2,3-triazol-2-yl)pyridin-3-yl)-1-(6-methylquinolin-5-yl)-5-(trifluoromethyl)-1H-pyrazole-4-carboxamide] | 13800
20 | > 15000 | ~12900 | 1440 |  |  |  | Cn1ccc(-c2ncc(NC(=O)c3cnn(-c4cccc5ccncc45)c3C(F)(F)F)cc2Cl)n1 [Cpd 21, N-(5-Chloro-6-(1-methyl-1H-pyrazol-3-yl)pyridin-3-yl)-1-(isoquinolin-8-yl)-5-(trifluoromethyl)-1H-pyrazole-4-carboxamide] | > 20000
